According to patent US7148204B2, “Antisense modulation of bcl-x expression” (Isis Pharmaceuticala, Inc., priority 1998, dated 2006):
In the oligonucleotide strings, read from the 5' end, every base follows the letter of its sugar. An asterisk marks phosphorothioate; unmarked linkages are phosphodiester. Other units and linkages are bracketed, terminal groups are in braces. A string of capitals states the bases alone. e = 2'-O-(2-methoxyethyl) (MOE); [5mC] = 5-methylcytosine; d = 2'-deoxy (DNA)

How the values were obtained:
Assay type in all cases: cell-based, human
total bcl-x mRNA = assay: RNase protection assay, total bcl-x mRNA in A549 cells; design: % CONTROL total bcl-x: concentration or dose not given beside the values; conditions: RPA
From the text: (§1) The ribonuclease (RNase) protection assay is a sensitive and specific method for quantitating expression levels (Zinn, et al., Cell, 1983, 34:865–79). The method is based on the hybridization of a target RNA to an in vitro transcribed ^32P-labeled anti-sense RNA probe from a DNA template. RNase treatment follows, resulting in degradation of single-stranded RNA and excess probe. The probe and target RNA are resolved by denaturing polyacrylamide gel electrophoresis with the “protected” probe visualized using autoradiography or beta imaging equipment. Template sets can be purchased (PharMingen Inc., San Diego Calif.) which contain a series of biologically relevant templates, each of distinct length and each representing a sequence in a distinct mRNA species. Each template set is capable of detecting up to 11 unique gene messages in a single reaction mix in addition to one or more housekeeping genes, L32 and GAPDH, which serve as internal controls. These template sets allow for multiple determinations to be made from a single sample. Multi-probe RPA can be performed on total RNA preparations derived by standard methods, without further purification of poly-A+ RNA.
(§2) Oligonucleotides were evaluated for their respective effects on bcl-xs and bcl-xl mRNA levels along with total bcl-x mRNA levels, using the RIBOQUANT™ RNase protection kit (Pharmingen, San Diego Calif.). All assays were performed according to manufacturer's protocols. Briefly, multi-probe DNA template sets were used to generate antisense RNA transcripts radiolabeled with […]. The template set used for apoptosis genes was the human hAPO-2 set. These radiolabeled probes were hybridized overnight with typically 10 μg of total cellular RNA. The reaction mixture was then digested with single-strand RNases to generate the protected fragments which were electrophoresed through a 5% acrylamide/urea gel. Protected bands were visualized and quantitated using a PhosphorImager (Molecular Dynamics, Sunnyvale Calif.).
(§3) Human bcl-x has two forms, a long form known as bcl-xl and a short form known as bcl-xs. […] The protein of bcl-xl is similar in size and structure to bcl-2, and could inhibit cell death upon growth factor withdrawal. The protein of bcl-xs is 63 amino acids shorter than bcl-xl. It could inhibit the bcl-2 function, thus promoting programmed cell death (apoptosis). Oligonucleotides were evaluated for their respective effects on bcl-xs and bcl-xl mRNA levels along with total bcl-x mRNA levels, using the RIBOQUANT™ RNase protection kit (Pharmingen, San Diego Calif.). All assays were performed according to manufacturer's protocols.

bcl-xs/bcl-xl mRNA ratio = assay: RNase protection assay, bcl-xs/bcl-xl mRNA ratio in A549 cells; conditions: A549 cells, RPA; for bcl-xs/bcl-xl (%): no oligo 17.56; for bcl-xs/bcl-xl* (change from the control ratio 17.56) / bcl-xs/bcl-xl Fold difference: no oligo = 1; for bcl-xs/bcl-xl Fold difference: 200 nM
From the text: as §1, §2, §3
(§4) These oligonucleotides were tested for their inhibitory effects on bcl-xl and bcl-xs mRNA levels in A549 cells, as detected by RPA analysis. Oligonucleotide concentration was 200 nM.

bcl-xs mRNA = assay: RNase protection assay, bcl-xs mRNA in A549 cells; design: concentration or dose not given beside the values; conditions: RPA
From the text: as §1, §2, §3

bcl-xl mRNA = assay: RNase protection assay, bcl-xl mRNA in A549 cells; conditions: RPA
From the text: as §1, §2, §3, §4

[1] = system: bcl-xs/bcl-xl transcript ratio; assay: PNA analogs, bcl-x splicing in electroporated HeLa cells; conditions: electroporation
From the text: A peptide-nucleic acid (PNA) oligonucleotide having the ISIS 22783 sequence (SEQ ID NO: 33) was synthesized as described in Example 4 hereinabove. The oligonucleotide (ISIS 32262) was uniformly modified with a PNA backbone throughout. A 5-base mismatch compound (ISIS 32263, SEQ ID NO: 52) was also synthesized as a full PNA. HeLa cells were transfected with these compounds by electroporation with a 200V pulse using a BTX Electro Cell Manipulator 600 (Genetronics, San Diego Calif.) and RNA was isolated 24 hours later.

Substance	% CONTROL total bcl-x (total bcl-x mRNA) [%]	bcl-xs/bcl-xl (%) (bcl-xs/bcl-xl mRNA ratio)	bcl-xs/bcl-xl* (change from the control ratio 17.56) (bcl-xs/bcl-xl mRNA ratio)	% CONTROL bcl-xs (bcl-xs mRNA) [%]	% CONTROL bcl-xl (bcl-xl mRNA) [%]	bcl-xs/bcl-xl Fold difference (bcl-xs/bcl-xl mRNA ratio) [fold]	% CONTROL bcl-xl (bcl-xl mRNA; 200 nM) [%]	further results
16968 (antisense e[5mC]*eT*e[5mC]*e[5mC]*eG*dA*dT*dG*dT*dC*dC*dC*dC*dT*dC*eA*eA*eA*eG*eT) [compound 16968]	21	20.18	1.15	20	15	–	–	–
16972 (antisense eT*e[5mC]*eA*e[5mC]*eG*dT*dT*dG*dG*dC*dG*dC*dT*dT*dA*eG*e[5mC]*e[5mC]*eA*eT) [compound 16972]	87	11.68	0.67	60	91	–	–	–
22782 (antisense e[5mC]*eA*eA*eA*eA*eG*eT*eA*eT*e[5mC]*e[5mC]*e[5mC]*eA*eG*e[5mC]*e[5mC]*eG*e[5mC]*e[5mC]*eG) [compound 22782]	75	15.72	0.89	64	76	–	–	–
22783 (antisense e[5mC]*eT*eG*eG*eA*eT*e[5mC]*e[5mC]*eA*eA*eG*eG*e[5mC]*eT*e[5mC]*eT*eA*eG*eG*eT) [compound 22783]	120	293.10	16.69	620	35	18	39	–
22784 (antisense e[5mC]*e[5mC]*eA*eG*e[5mC]*e[5mC]*eG*e[5mC]*e[5mC]*eG*eT*eT*e[5mC]*eT*e[5mC]*e[5mC]*eT*eG*eG*eA) [compound 22784]	92	48.63	2.77	204	72	–	–	–
22785 (antisense eG*e[5mC]*e[5mC]*eG*e[5mC]*e[5mC]*eG*eT*eT*e[5mC]*eT*e[5mC]*e[5mC]*eT*eG*eG*eA*eT*e[5mC]*e[5mC]) [compound 22785]	83	80.14	4.56	248	53	–	–	–
23172 (antisense eG*eT*eT*e[5mC]*e[5mC]*eT*eG*eG*e[5mC]*e[5mC]*e[5mC]*eT*eT*eT*e[5mC]*eG*eG*e[5mC]*eT*e[5mC]) [compound 23172]	79	19.38	1.10	84	77	–	–	–
23174 (antisense e[5mC]*e[5mC]*eG*eG*e[5mC]*e[5mC]*eA*e[5mC]*eA*eG*eT*e[5mC]*eA*eT*eG*e[5mC]*e[5mC]*e[5mC]*eG*eT) [compound 23174]	66	14.93	0.85	56	67	–	–	–
23175 (antisense eT*eG*eT*eA*eG*e[5mC]*e[5mC]*e[5mC]*eA*eG*e[5mC]*eA*eG*eA*eA*e[5mC]*e[5mC]*eA*e[5mC]*eG) [compound 23175]	78	11.44	0.65	52	82	–	–	–
106257 (antisense AGGTAAGTGGCCATCCAAGC; all 2'-MOE, all phosphorothioate, methylation of C not given here) [compound 106257]	–	–	–	–	–	13	78	–
106258 (antisense GTAAGTGGCCATCCAAGCTG; all 2'-MOE, all phosphorothioate, methylation of C not given here) [compound 106258]	–	–	–	–	–	21	66	–
106259 (antisense AAGTGGCCATCCAAGCTGCG; all 2'-MOE, all phosphorothioate, methylation of C not given here) [compound 106259]	–	–	–	–	–	15	96	–
106260 (antisense GTGGCCATCCAAGCTGCGAT; all 2'-MOE, all phosphorothioate, methylation of C not given here) [compound 106260]	–	–	–	–	–	12	66	–
ISIS 32262: PNA oligonucleotide having the ISIS 22783 sequence (SEQ ID NO: 33), PNA backbone throughout (CTGGATCCAAGGCTCTAGGT; all peptide nucleic acid (PNA))	–	–	–	–	–	–	–	Ratio (approx.) of bcl-xs/bcl-xl ([1]; 2 μM): ~2.0; Ratio (approx.) of bcl-xs/bcl-xl ([1]; 5 μM): ~3.5; Ratio (approx.) of bcl-xs/bcl-xl ([1]; 10 μM): ~6.5; Ratio (approx.) of bcl-xs/bcl-xl ([1]; 15 μM): ~7.75; Ratio (approx.) of bcl-xs/bcl-xl ([1]; 25 μM): ~11.5; Ratio (approx.) of bcl-xs/bcl-xl ([1]; RNA 24 hours later, 1 μM): ~1.5
ISIS 32263: 5-base mismatch compound, SEQ ID NO: 52, full PNA (CTGGTTACACGACTCCAGGT; all peptide nucleic acid (PNA)) [reference compound]	–	–	–	–	–	–	–	Ratio (approx.) of bcl-xs/bcl-xl ([1]; 2 μM): ~0.75; Ratio (approx.) of bcl-xs/bcl-xl ([1]; 5 μM): ~0.75; Ratio (approx.) of bcl-xs/bcl-xl ([1]; 10 μM): ~1.0; Ratio (approx.) of bcl-xs/bcl-xl ([1]; 15 μM): ~0.75; Ratio (approx.) of bcl-xs/bcl-xl ([1]; 25 μM): ~1.0; Ratio (approx.) of bcl-xs/bcl-xl ([1]; RNA 24 hours later, 1 μM): ~1.5
